Data reported in PMC9505425, “Targeting of the Mitochondrial TET1 Protein by Pyrrolo[3,2-b]pyrrole Chelators” (International Journal of Molecular Sciences, 2022).
“And” between values parts separate entries of the source, which are not always exact repeats. Equal values may be shown once.

Key:
[1] = tested on: H-1299 cells; experiment: MTT cytotoxicity assay, H-1299; assay type: cell-based, human; conditions: for IC50: NCI-H1299, MTT; for IC50 / Cell viability %: 48 h
Procedure: (§1) The effects of the tested compounds 1–6 on HF-P4, U-118 MG, H1299, BT-20, and Caov-3 cell lines were evaluated by the MTT assay during 48 h treatment (Table 2 and Tables S2–S31). In all tested compounds, we recognized a difference in cytotoxicity between healthy cells (HF-P4) and cancer cell lines (BT-20, Caov-3, and H-1299). […] In the case of ovarian cancer, the authors discovered oncogenic and poor prognosis roles of TET1 in epithelial ovarian carcinoma (EOC). TET1 is believed to demethylate the epigenome and activate numerous oncogenic pathways in EOC. The aforementioned study presents a new mechanism where TET1 contributes to tumor development through collaboration with CK2α [21]. The overexpression of the TET1 protein was also found in triple negative breast cancer and was associated with an activation of PI3K/mTOR pathway and decreased overall survival.
(§2) A human glioblastoma cell line (U118-MG) and a human non-small-cell lung carcinoma cell line (H1299) were used for the cytotoxicity assay (MTT). Both cell lines were generously supplied by Dr. M. Masařik, PhD, Department of Pathological physiology, Masaryk University, Czech Republic. U118-MG cells were cultivated under standard conditions in Dulbecco’s modified Eagle’s medium (ATCC, Manassas, VA, USA) supplemented with 10% FBS and streptomycin (100 μg/mL) at 37 °C at a 5% CO2 atmosphere. H1299 cells were cultivated under standard conditions in RPMI 1640 (BioTech, Prague, Czech Republic) medium supplemented with 10% FBS and streptomycin (100 μg/mL) at 37 °C at a 5% CO2 atmosphere.
(§3) For the cytotoxicity assay, we used the following cell lines: human glioblastoma cell line U118-MG, human mammary gland/breast cell line BT-20, human ovary adenocarcinoma cell line Caov-3, and non-small-cell lung carcinoma H-1299. As previously mentioned, these cell lines contain a high level of the TET1 protein, which corresponds to a lower overall survival. In addition to these cell cultures, we used the human dermal fibroblast cell line HF-P4 as a healthy control. Determination of cytotoxicity was performed using the MTT [3-(4,5-dimethylthiazol-2-yl)-2,5-diphenyltetrazolium bromide] colorimetric assay. Viable cells from each cell line were cultured in 96-well plates (VWR, Stříbrná Skalice, Czech Republic) at a density of 1.0 × 10^5 cells per well and allowed to grow for 24 h in 200 μL of recommended medium. After a 1-day incubation, the medium was replaced with solutions of compounds 1–6 at concentration ranges of 0.1–20 μM. Each concentration was measured four times within one test, and the entire test was repeated three times. Tested compounds 1–6 were dissolved in DMSO and then diluted with corresponding medium to a final volume of 200 μL (maximum 1% DMSO). After 48 h exposure, cells were treated with 175 μL of MTT solution (P-LAB, Prague, Czech Republic) for 2 h. In the next step, MTT solution was removed, and 125 μL of DMSO (Penta, Prague, Czech Republic) was added to solubilize dark crystals of formazan formed in intact cells, and absorbance was measured at 570 nm by the enzyme-linked immunoabsorbent assay reader Infinite® 200 PRO (Tecan, Männedorf, Switzerland). The final DMSO concentration was smaller than 1% (v/v). The absorbance of untreated cells was considered 100%, and IC50 values were calculated by the GraphPad Prism 8 software. As a parameter for cytotoxicity, we used a concentration that inhibits 50% of cell growth (IC50).

[2] = tested on: U-118 MG cells; experiment: MTT cytotoxicity assay, U-118 MG; assay type: cell-based, human; conditions: 48 h; for viability at 0.1 µM / viability at 0.75 µM / viability at 1 µM / viability at 2.5 µM / viability at 5 µM / viability at 7.5 µM / viability at 10 µM / viability at 15 µM / viability at 20 µM / IC50 / viability at 0.5 µM: Homo sapiens, U-118-MG; for viability at 0.1 µM / viability at 0.75 µM / viability at 1 µM / viability at 2.5 µM / viability at 5 µM / viability at 7.5 µM / viability at 10 µM / viability at 15 µM / viability at 20 µM / Cell viability % / viability at 0.5 µM: U-118 MG, repeats; for viability at 0.1 µM / viability at 0.75 µM / viability at 1 µM / viability at 2.5 µM / viability at 5 µM / viability at 7.5 µM / viability at 10 µM / viability at 15 µM / viability at 20 µM / viability at 0.5 µM: read-out: Cell viability %; for IC50: MTT
Procedure: as §1, §2, §3

[3] = Homo sapiens, NCI-H1299, 48 h, H-1299, 2.5 uM, repeats, read-out: Cell viability %
[4] = Homo sapiens, NCI-H1299, 48 h, H-1299, 5 uM, repeats, read-out: Cell viability %
[5] = Homo sapiens, NCI-H1299, 48 h, H-1299, 10 uM, repeats, read-out: Cell viability %
[6] = Homo sapiens, NCI-H1299, 48 h, H-1299, 15 uM, repeats, read-out: Cell viability %
[7] = Homo sapiens, NCI-H1299, 48 h, H-1299, 20 uM, repeats, read-out: Cell viability %
[8] = Homo sapiens, NCI-H1299, 48 h, H-1299, 100 nM, repeats, read-out: Cell viability %
[9] = Homo sapiens, NCI-H1299, 48 h, H-1299, 500 nM, repeats, read-out: Cell viability %
[10] = Homo sapiens, NCI-H1299, 48 h, H-1299, 7.5 uM, repeats, read-out: Cell viability %

Cc1ccc(-n2c(-c3ccc(C(=O)N/N=C/c4cc(F)ccc4O)cc3)cc3c2cc(-c2ccc(C(=O)N/N=C/c4cc(F)ccc4O)cc2)n3-c2ccc(C)cc2)cc1 [Compound 3]
viability at 2.5 µM [1, 3]: 124%
viability at 5 µM [1, 4]: 85.7%
viability at 10 µM [1, 5]: 47.9%
viability at 15 µM [1, 6]: 58.9%
viability at 20 µM [1, 7]: 31.4%
IC50 ([1]; Homo sapiens): 10.6 µM
viability at 0.1 µM ([2]; 100 nM): 90.9%
viability at 0.75 µM ([2]; 750 nM): 70.2%
viability at 1 µM ([2]; 1 uM): 75.9%
viability at 2.5 µM ([2]; 2.5 uM): 64.7%
viability at 5 µM ([2]; 5 uM): 57.1%
viability at 7.5 µM ([2]; 7.5 uM): 48.3%
viability at 10 µM ([2]; 10 uM): 45.6%
viability at 15 µM ([2]; 15 uM): 42.6%
viability at 20 µM ([2]; 20 uM): 35.1%
IC50 [2]: 19.5 µM
Cell viability % ([2]; 100 nM, 0.1 µM): 99.65% and 109.711%
Cell viability % ([2]; 500 nM, 0.5 µM): 87.97% and 59.47% and 56.29%
Cell viability % ([2]; 750 nM, 0.75 µM): 72.44% and 70.85%
Cell viability % ([2]; 1 uM): 71.04% and 66.44%
Cell viability % ([2]; 2.5 uM): 61.47% and 71.58%
Cell viability % ([2]; 5 uM): 68.44% and 68.48%
Cell viability % ([2]; 7.5 uM): 52.95% and 55.16%
Cell viability % ([2]; 10 uM): 53.29% and 53%
Cell viability % ([2]; 15 uM): 46.07% and 47.09%
Cell viability % ([2]; 20 uM): 30.47% and 32.82%

COc1cccc(/C=N/NC(=O)c2ccc(-c3cc4c(cc(-c5ccc(C(=O)N/N=C/c6cccc(OC)c6O)cc5)n4-c4ccc(C)cc4)n3-c3ccc(C)cc3)cc2)c1O [Compound 5]
viability at 0.1 µM [1, 8]: 113%
viability at 0.5 µM [1, 9]: 125%
viability at 2.5 µM [1, 3]: 106%
viability at 5 µM [1, 4]: 85.7%
viability at 7.5 µM [1, 10]: 56.6%
viability at 10 µM [1, 5]: 47.9%
viability at 15 µM [1, 6]: 46.5%
viability at 20 µM [1, 7]: 31.4%
IC50 ([1]; Homo sapiens): 10.1 µM
viability at 0.1 µM ([2]; 100 nM): 97.8%
viability at 0.5 µM ([2]; 500 nM): 91.7%
viability at 1 µM ([2]; 1 uM): 87.4%
viability at 2.5 µM ([2]; 2.5 uM): 58.2%
viability at 5 µM ([2]; 5 uM): 65.3%
viability at 7.5 µM ([2]; 7.5 uM): 47.2%
viability at 10 µM ([2]; 10 uM): 45.5%
viability at 15 µM ([2]; 15 uM): 28.9%
viability at 20 µM ([2]; 20 uM): 21%
IC50 [2]: 6.85 µM
Cell viability % ([2]; 100 nM, 0.1 µM): 97.5% and 97.94%
Cell viability % ([2]; 500 nM, 0.5 µM): 83.56% and 99.84%
Cell viability % ([2]; 750 nM, 0.75 µM): 101.0241% and 97.49% and 72.15%
Cell viability % ([2]; 1 uM): 91.36% and 94.35%
Cell viability % ([2]; 2.5 uM): 62.67% and 72.48%
Cell viability % ([2]; 5 uM): 61.9341% and 54.55%
Cell viability % ([2]; 7.5 uM): 44.6% and 36.58%
Cell viability % ([2]; 10 uM): 44.7379% and 34.31%
Cell viability % ([2]; 15 uM): 30.3% and 23.7185%
Cell viability % ([2]; 20 uM): 24.2419% and 18.84%

Cc1ccc(-n2c(-c3ccc(C(=O)N/N=C/c4ccccc4O)cc3)cc3c2cc(-c2ccc(C(=O)N/N=C/c4ccccc4O)cc2)n3-c2ccc(C)cc2)cc1 [Compound 6]
Cell viability % ([1]; H-1299, 100 nM, repeats, 0.1 µM): 77.16% and 73.27%
Cell viability % ([1]; H-1299, 500 nM, repeats, 0.5 µM): 69.88% and 74.98%
Cell viability % ([1]; H-1299, 750 nM, repeats, 0.75 µM): 83.61% and 74.75%
Cell viability % ([1]; H-1299, 1 uM, repeats, 1 µM): 86.38% and 69.89% and 61.2%
Cell viability % ([1]; H-1299, 2.5 uM, repeats, 2.5 µM): 77.45% and 63.25% and 56.68%
Cell viability % ([1]; H-1299, 5 uM, repeats, 5 µM): 69.4% and 77.63% and 53.79%
Cell viability % ([1]; H-1299, 7.5 uM, repeats, 7.5 µM): 53.98% and 50.36%
Cell viability % ([1]; H-1299, 10 uM, repeats, 10 µM): 52.11% and 46.79%
Cell viability % ([1]; H-1299, 15 uM, repeats, 15 µM): 36.42% and 29.24%
Cell viability % ([1]; H-1299, 20 uM, repeats, 20 µM): 33.42% and 31.6%
viability at 0.1 µM [1, 8]: 74.6%
viability at 0.5 µM [1, 9]: 82%
viability at 0.75 µM ([1]; Homo sapiens, NCI-H1299, 48 h, H-1299, 750 nM, repeats, read-out: Cell viability %): 90.2%
viability at 7.5 µM [1, 10]: 63.7%
viability at 10 µM [1, 5]: 54.8%
viability at 15 µM [1, 6]: 38.7%
viability at 20 µM [1, 7]: 34.4%
IC50 ([1]; Homo sapiens): 14.6 µM
viability at 0.1 µM ([2]; 100 nM): 98.1%
viability at 0.5 µM ([2]; 500 nM): 73.5%
viability at 0.75 µM ([2]; 750 nM): 67.2%
viability at 1 µM ([2]; 1 uM): 68.4%
viability at 2.5 µM ([2]; 2.5 uM): 63%
viability at 5 µM ([2]; 5 uM): 59%
viability at 7.5 µM ([2]; 7.5 uM): 45.9%
viability at 10 µM ([2]; 10 uM): 49.6%
viability at 15 µM ([2]; 15 uM): 28%
viability at 20 µM ([2]; 20 uM): 22.5%
IC50 [2]: 8.12 µM
Cell viability % ([2]; 100 nM, 0.1 µM): 91.37% and 92.92%
Cell viability % ([2]; 500 nM, 0.5 µM): 83.7778% and 86.55%
Cell viability % ([2]; 750 nM, 0.75 µM): 73.07% and 81.93%
Cell viability % ([2]; 1 uM): 80.41% and 81.53%
Cell viability % ([2]; 2.5 uM): 69.75% and 76.68%
Cell viability % ([2]; 5 uM): 63.22% and 58.23%
Cell viability % ([2]; 7.5 uM): 45.4% and 56.877%
Cell viability % ([2]; 10 uM): 51.17% and 52.19%
Cell viability % ([2]; 15 uM): 29.06% and 32.78%
Cell viability % ([2]; 20 uM): 18.64% and 22.51%
